US8148367B2 (Takeda Pharmaceutical Company Limited, priority 2008, dated 2012)

These molecules were tested against T1, Recombinant human renin (Homo sapiens, UniProt P00797) (assay: In vitro enzymatic activity assay of renin inhibitors (fluorescence, QXL520/HiLyteFluo488 peptide substrate)). Settings: recombinant human renin 3 nM, 1 μM substrate, pre-incubated 10 minutes at 37° C., incubation one hour, pH 7.4, 5% DMSO; read-out: IC50 of Exemplified Compounds Against Renin.
T1 construct: isolate the active form (residues 67-406); made in house; host or cells: FreeStyle 293-F cells, transient expression of pcDNA3.1(+)/hREN
T1 sequence (P00797 67-406): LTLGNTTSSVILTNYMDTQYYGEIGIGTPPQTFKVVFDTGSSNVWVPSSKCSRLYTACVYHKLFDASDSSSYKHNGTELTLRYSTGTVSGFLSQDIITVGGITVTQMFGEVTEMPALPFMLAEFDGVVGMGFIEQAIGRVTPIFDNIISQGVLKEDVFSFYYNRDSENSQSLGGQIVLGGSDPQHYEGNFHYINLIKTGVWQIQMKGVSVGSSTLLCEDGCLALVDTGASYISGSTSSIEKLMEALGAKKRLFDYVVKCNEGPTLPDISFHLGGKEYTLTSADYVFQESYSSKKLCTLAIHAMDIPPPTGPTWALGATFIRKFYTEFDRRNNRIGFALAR
Format: biochemical

O=C(c1c(-c2ccccc2)n(-c2cccc(N3CCOCC3)c2)c(=O)n1Cc1cccc(-n2cccc2)c1)N1CCNCC1 [Example 77, 1-(3-(1H-Pyrrol-1-yl)benzyl)-3-(3-morpholinophenyl)-4-phenyl-5-(piperazine-1-carbonyl)-1H-imidazol-2(3H)-one] and O=C(c1c(-c2ccccc2)n(-c2ccccc2)c(=O)n1Cc1cccc(-n2cccc2)c1)N1CCNCC1 [Example 88, 1-(3-(1H-Pyrrol-1-yl)benzyl)-3,4-diphenyl-5-(piperazine-1-carbonyl)-1H-imidazol-2(3H)-one] cannot be ordered by IC50: less than 100 nM for the first, less than 100 nM for the second.

CC(C)CN(C)C(=O)c1cccc(Cn2c(C(=O)N3CCNCC3)c(-c3ccccc3)n(-c3cccc(N4CCOCC4)c3)c2=O)c1 [Example 78, N-isobutyl-N-methyl-3-((3-(3-morpholinophenyl)-2-oxo-4-phenyl-5-(piperazine-1-carbonyl)-2,3-dihydro-1H-imidazol-1-yl)methyl)benzamide] and COC(=O)c1cccc(Cn2c(C(=O)N3CCNCC3)c(-c3ccccc3)n(-c3ccccc3)c2=O)c1 [Example 80, Methyl 3-((2-oxo-3,4-diphenyl-5-(piperazine-1-carbonyl)-2,3-dihydro-1H-imidazol-1-yl)methyl)benzoate] cannot be ordered by IC50: greater than 1000 nM for the first, greater than 1000 nM for the second.

First: N#Cc1cccc(Cn2c(C(=O)N3CCNCC3)c(-c3ccccc3)n(-c3ccccc3)c2=O)c1 [Example 79, 3-((2-oxo-3,4-diphenyl-5-(piperazine-1-carbonyl)-2,3-dihydro-1H-imidazol-1-yl)methyl)benzonitrile]
Second: COc1cccc(Cn2c(C(=O)N3CCNCC3)c(-c3ccccc3)n(-c3ccccc3)c2=O)c1 [Example 83, 1-(3-methoxybenzyl)-3,4-diphenyl-5-(piperazine-1-carbonyl)-1H-imidazol-2(3H)-one]
The IC50 of the first is higher: 500 to 1000 nM for the first, 100 to 500 nM for the second. The second is the more potent here.

O=C(c1c(-c2ccccc2)n(C2CCOCC2)c(=O)n1Cc1ccccc1)N1CCNCC1 [Example 81, 1-Benzyl-4-phenyl-5-(piperazine-1-carbonyl)-3-(tetrahydro-2H-pyran-4-yl)-1H-imidazol-2(3H)-one] and O=C(c1c(-c2ccccc2)n([C@@H]2CCCC[C@H]2O)c(=O)n1Cc1ccccc1)N1CCNCC1 [Example 105, 1-Benzyl-3-((1R,2R)-2-hydroxycyclohexyl)-4-phenyl-5-(piperazine-1-carbonyl)-1H-imidazol-2(3H)-one] cannot be ordered by IC50: greater than 1000 nM for the first, greater than 1000 nM for the second.

First: O=C(c1c(-c2ccccc2)n(-c2ccccc2)c(=O)n1Cc1cccc2cccnc12)N1CCNCC1 [Example 82, 1,5-Diphenyl-4-(piperazine-1-carbonyl)-3-(quinolin-8-ylmethyl)-1H-imidazol-2(3H)-one]
Second: O=C(c1c(-c2ccccc2)n(-c2ccccc2)c(=O)n1Cc1ccc2ccccc2c1)N1CCNCC1 [Example 84, 1-(Naphthalen-2-ylmethyl)-3,4-diphenyl-5-(piperazine-1-carbonyl)-1H-imidazol-2(3H)-one]
The IC50 of the first is higher: greater than 1000 nM for the first, 100 to 500 nM for the second.

First: N#Cc1ccccc1Cn1c(C(=O)N2CCNCC2)c(-c2ccccc2)n(-c2ccccc2)c1=O [Example 85, 2-((2-Oxo-3,4-diphenyl-5-(piperazine-1-carbonyl)-2,3-dihydro-1H-imidazol-1-yl)methyl)benzonitrile]
Second: O=C(c1c(-c2ccccc2)n(-c2ccccc2)c(=O)n1Cc1ccc(Cl)c(OC(F)(F)F)c1)N1CCNCC1 [Example 87, 1-(4-Chloro-3-(trifluoromethoxy)benzyl)-3,4-diphenyl-5-(piperazine-1-carbonyl)-1H-imidazol-2(3H)-one]
The IC50 of the first is higher: greater than 1000 nM for the first, 100 to 500 nM for the second. The second is the more potent here.

Compared with COc1cc(Cn2c(C(=O)N3CCNCC3)c(-c3ccccc3)n(-c3ccccc3)c2=O)cc(OC)c1 [Example 86, 1-(3,5-Dimethoxybenzyl)-3,4-diphenyl-5-(piperazine-1-carbonyl)-1H-imidazol-2(3H)-one], CC(=O)N1CCCC(n2c(-c3ccccc3)c(C(=O)N3CCNCC3)n(Cc3cccc(Oc4ccccc4)c3)c2=O)C1 (stereo not shown) [Example 99, 1-(1-Acetylpiperidin-3-yl)-3-(3-phenoxybenzyl)-5-phenyl-4-(piperazine-1-carbonyl)-1H-imidazol-2(3H)-one] is higher in IC50: 100 to 500 nM for the first, greater than 1000 nM for the second. The first is the more potent here.

O=C(c1[nH]c(=O)n(C2CCCCC2)c1-c1ccccc1)N1CCCNCC1 [Example 89, 1-Cyclohexyl-4-(1,4-diazepane-1-carbonyl)-5-phenyl-1H-imidazol-2(3H)-one] and CC(=O)N1CCCC(n2c(-c3ccccc3)c(C(=O)N3CCNCC3)[nH]c2=O)C1 (stereo not shown) [Example 94, 1-(1-Acetylpiperidin-3-yl)-5-phenyl-4-(piperazine-1-carbonyl)-1H-imidazol-2(3H)-one] cannot be ordered by IC50: greater than 1000 nM for the first, greater than 1000 nM for the second.

First: O=C(c1c(-c2ccccc2)n(C2CCCCC2)c(=O)n1Cc1cc(Cl)nc(N2CCOCC2)c1)N1CCNCC1 [Example 90, 1-((2-Chloro-6-morpholinopyridin-4-yl)methyl)-3-cyclohexyl-4-phenyl-5-(piperazine-1-carbonyl)-1H-imidazol-2(3H)-one]
Second: O=C(c1c(-c2ccccc2)n(C2CCCCC2)c(=O)n1Cc1cc(-c2cn[nH]c2)nc(-c2cn[nH]c2)c1)N1CCNCC1 [Example 91, 1-Cyclohexyl-3-((2,6-di(1H-pyrazol-4-yl)pyridin-4-yl)methyl)-5-phenyl-4-(piperazine-1-carbonyl)-1H-imidazol-2(3H)-one]
The IC50 of the first is higher: 500 to 1000 nM for the first, 100 to 500 nM for the second.

COc1cccc(Cn2c(C(=O)N3CCNCC3)c(-c3ccccc3)n(C3CCCN(C(C)=O)C3)c2=O)c1 (stereo not shown) [Example 92, 1-(1-Acetylpiperidin-3-yl)-3-(3-methoxybenzyl)-5-phenyl-4-(piperazine-1 carbonyl)-1H-imidazol-2(3H)-one] and CC(=O)N1CCCC(n2c(-c3ccccc3)c(C(=O)N3CCNCC3)n(Cc3ccccc3)c2=O)C1 (stereo not shown) [Example 93, 1-(1-Acetylpiperidin-3-yl)-3-benzyl-5-phenyl-4-(piperazine-1-carbonyl)-1H-imidazol-2(3H)-one] cannot be ordered by IC50: greater than 1000 nM for the first, greater than 1000 nM for the second.

O=C(c1ccccc1)N1CCCC(n2c(-c3ccccc3)c(C(=O)N3CCNCC3)n(Cc3ccccc3)c2=O)C1 (stereo not shown) [Example 95, 1-(1-Benzoylpiperidin-3-yl)-3-benzyl-5-phenyl-4-(piperazine-1-carbonyl)-1H-imidazol-2(3H)-one] and O=C(c1ccco1)N1CCCC(n2c(-c3ccccc3)c(C(=O)N3CCNCC3)n(Cc3ccccc3)c2=O)C1 (stereo not shown) [Example 97, 1-Benzyl-3-(1-(furan-2-carbonyl)piperidin-3-yl)-4-phenyl-5-(piperazine-1-carbonyl)-1H-imidazol-2(3H)-one] cannot be ordered by IC50: greater than 1000 nM for the first, greater than 1000 nM for the second.

First: O=C(c1c(-c2ccccc2)n(C2CCCN(S(=O)(=O)c3ccccc3)C2)c(=O)n1Cc1ccccc1)N1CCNCC1 (stereo not shown) [Example 96, 1-Benzyl-4-phenyl-3-(1-(phenylsulfonyl)piperidin-3-yl)-5-(piperazine-1-carbonyl)-1H-imidazol-2(3H)-one]
Second: O=C(c1c(-c2ccccc2)n(C2CCCN(S(=O)(=O)c3ccccn3)C2)c(=O)n1Cc1ccccc1)N1CCNCC1 (stereo not shown) [Example 101, 1-Benzyl-4-phenyl-5-(piperazine-1-carbonyl)-3-(1-(pyridin-2-ylsulfonyl)piperidin-3-yl)-1H-imidazol-2(3H)-one]
The IC50 of the first is lower: 500 to 1000 nM for the first, greater than 1000 nM for the second.

O=C(c1[nH]c(=O)n(C2CCCN(S(=O)(=O)c3ccccc3)C2)c1-c1ccccc1)N1CCNCC1 (stereo not shown) [Example 98, 5-Phenyl-1-(1-(phenylsulfonyl)piperidin-3-yl)-4-(piperazine-1-carbonyl)-1H-imidazol-2(3H)-one] and O=C(c1c(-c2ccccc2)n(C2CCCN(S(=O)(=O)c3ccccc3)C2)c(=O)n1Cc1ccccc1)N1CCNCC1 (stereo not shown) [Example 100, 1-Benzyl-4-phenyl-3-(1-(phenylsulfonyl)piperidin-3-yl)-5-(piperazine-1-carbonyl)-1H-imidazol-2(3H)-one] fall in the same range of IC50: 500 to 1000 nM for the first, 500 to 1000 nM for the second.

O=C(c1c(-c2ccccc2)n(C2CCCN(S(=O)(=O)c3ccccc3)C2)c(=O)n1Cc1cccc(Oc2ccccc2)c1)N1CCNCC1 (stereo not shown) [Example 102, 1-(3-Phenoxybenzyl)-4-phenyl-3-(1-(phenylsulfonyl)piperidin-3-yl)-5-(piperazine-1-carbonyl)-1H-imidazol-2(3H)-one] and O=C(c1c(-c2ccccc2)n(C2CCCN(S(=O)(=O)c3ccccn3)C2)c(=O)n1Cc1cccc(Oc2ccccc2)c1)N1CCNCC1 (stereo not shown) [Example 103, 1-(3-Phenoxybenzyl)-4-phenyl-5-(piperazine-1-carbonyl)-3-(1-(pyridin-2-ylsulfonyl)piperidin-3-yl)-1H-imidazol-2(3H)-one] fall in the same range of IC50: 100 to 500 nM for the first, 100 to 500 nM for the second.

CC(=O)N1CCCC(n2c(-c3ccccc3)c(C(=O)N3CCNC[C@H]3Cc3ccccc3)[nH]c2=O)C1 (stereo partly drawn) [Example 104, 1-(1-Acetylpiperidin-3-yl)-4-((R)-2-benzylpiperazine-1-carbonyl)-5-phenyl-1H-imidazol-2(3H)-one] and O=C(NC[C@@H]1CNCCN1C(=O)c1[nH]c(=O)n([C@@H]2CCCC[C@H]2O)c1-c1ccccc1)c1ccccc1 [Example 107, N—(((S)-1-(1-((1R,2R)-2-Hydroxycyclohexyl)-2-oxo-5-phenyl-2,3-dihydro-1H-imidazole-4-carbonyl)piperazin-2-yl)methyl)benzamide] fall in the same range of IC50: 500 to 1000 nM for the first, 500 to 1000 nM for the second.

Work on O=C(c1c(-c2ccccc2)n([C@@H]2CCCC[C@H]2O)c(=O)n1Cc1cccc(Oc2ccccc2)c1)N1CCNCC1 [Example 106, 1-((1R,2R)-2-Hydroxycyclohexyl)-3-(3-phenoxybenzyl)-5-phenyl-4-(piperazine-1-carbonyl)-1H-imidazol-2(3H)-one] yielded an IC50 of 100 to 500 nM.
